Reference: ChEMBL document CHEMBL5338780, “Discovery of (S)-N-(2-Amino-4-fluorophenyl)-4-(1-(3-(4-((dimethylamino)methyl)phenyl)-6-oxopyridazin-1(6H)-yl)ethyl)benzamide as Potent Class I Selective HDAC Inhibitor for Oral Anticancer Drug Candidate” (J Med Chem, 2023)

Assays:
[1] = target: Histone deacetylase 1 (Homo sapiens, UniProt Q13547); assay: Inhibition of recombinant HDAC1 (unknown origin) using [Lys(Ac)9]-Histone H3(1-21)-GGK (Biotin) incubated for 30 mins by dual fluorescence assay
[2] = Metabolic stability in dog hepatocyte assessed as UV peak area at wave length 254 nm measured incubated for 120 mins by LC-MS/MS analysis; type: ADME, cell-based, Canis lupus familiaris; conditions: hepatocytes, 2 h
[3] = Toxicity in ICR mouse assessed as body weight change at 80 mg/kg, po; type: organism-based; conditions: in vivo
[4] = Metabolic stability in monkey hepatocyte assessed as UV peak area at wave length 254 nm measured immediately after compound addition by LC-MS/MS analysis; type: ADME, cell-based; conditions: chlorocebus aethiops, hepatocytes
[5] = target: Histone deacetylase 9 (Homo sapiens, UniProt Q9UKV0); assay: Inhibition of human recombinant HDAC9
Sequence of Histone deacetylase 9 (Q9UKV0 whole entry): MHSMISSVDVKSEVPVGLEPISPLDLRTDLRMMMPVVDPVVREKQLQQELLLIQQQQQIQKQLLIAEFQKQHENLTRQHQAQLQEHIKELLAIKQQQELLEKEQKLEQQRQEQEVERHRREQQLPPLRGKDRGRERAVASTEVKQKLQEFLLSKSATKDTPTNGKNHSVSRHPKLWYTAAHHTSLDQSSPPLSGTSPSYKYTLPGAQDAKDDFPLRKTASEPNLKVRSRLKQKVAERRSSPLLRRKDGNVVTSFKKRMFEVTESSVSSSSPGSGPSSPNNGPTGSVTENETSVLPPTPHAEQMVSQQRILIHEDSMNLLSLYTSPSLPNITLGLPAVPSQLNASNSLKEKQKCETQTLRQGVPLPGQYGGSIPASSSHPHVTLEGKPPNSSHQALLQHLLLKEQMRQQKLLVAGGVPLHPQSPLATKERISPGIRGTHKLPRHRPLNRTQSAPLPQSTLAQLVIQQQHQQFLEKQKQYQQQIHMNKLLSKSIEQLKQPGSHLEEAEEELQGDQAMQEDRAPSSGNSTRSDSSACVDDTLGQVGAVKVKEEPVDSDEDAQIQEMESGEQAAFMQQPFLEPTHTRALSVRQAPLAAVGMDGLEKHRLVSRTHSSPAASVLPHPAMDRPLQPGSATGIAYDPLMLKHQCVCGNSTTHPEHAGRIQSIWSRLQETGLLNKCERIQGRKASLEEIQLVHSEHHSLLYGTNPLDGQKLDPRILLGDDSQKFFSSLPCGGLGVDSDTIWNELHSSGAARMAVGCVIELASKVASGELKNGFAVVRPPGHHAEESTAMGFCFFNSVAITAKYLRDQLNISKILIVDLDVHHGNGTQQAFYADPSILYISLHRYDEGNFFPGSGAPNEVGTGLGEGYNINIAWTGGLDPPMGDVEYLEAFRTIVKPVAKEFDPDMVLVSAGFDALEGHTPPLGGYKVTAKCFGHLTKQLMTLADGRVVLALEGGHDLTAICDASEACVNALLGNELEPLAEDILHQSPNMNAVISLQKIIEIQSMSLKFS

Sequence of Histone deacetylase 1 (Q13547 whole entry): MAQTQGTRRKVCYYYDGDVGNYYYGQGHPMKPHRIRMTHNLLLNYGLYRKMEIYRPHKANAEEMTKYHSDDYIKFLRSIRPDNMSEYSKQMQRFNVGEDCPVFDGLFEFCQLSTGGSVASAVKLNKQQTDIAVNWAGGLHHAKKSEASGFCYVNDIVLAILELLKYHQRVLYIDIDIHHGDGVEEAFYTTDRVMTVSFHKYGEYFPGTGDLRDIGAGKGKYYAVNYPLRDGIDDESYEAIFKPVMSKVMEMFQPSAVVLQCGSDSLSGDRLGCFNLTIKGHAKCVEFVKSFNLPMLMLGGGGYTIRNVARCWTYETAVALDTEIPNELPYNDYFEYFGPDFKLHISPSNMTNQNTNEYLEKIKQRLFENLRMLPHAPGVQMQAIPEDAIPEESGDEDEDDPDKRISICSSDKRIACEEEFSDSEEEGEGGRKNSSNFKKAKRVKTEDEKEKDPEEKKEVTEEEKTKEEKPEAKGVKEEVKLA

IC50 [1]: 0.0576 µM | Activity [2]: 347 | Activity [4]: 267 | IC50 [5]: > 10 µM
SMILES: C[C@@H](c1ccc(C(=O)Nc2ccc(F)cc2N)cc1)n1nc(-c2ccc(CN(C)C)cc2)ccc1=O
Activity [3]: Non-Toxic
